Target: Muscarinic acetylcholine receptor M5 (Homo sapiens) (UniProt P08912)
Experiment: human M5 positive allosteric modulators, CHO cells (AID 651927)
Settings: CHO-K1 hM5, Fluo-4 calcium flux, ACh EC20 potentiation

Chain of Muscarinic acetylcholine receptor M5 (Homo sapiens) (P08912 whole entry, looked up): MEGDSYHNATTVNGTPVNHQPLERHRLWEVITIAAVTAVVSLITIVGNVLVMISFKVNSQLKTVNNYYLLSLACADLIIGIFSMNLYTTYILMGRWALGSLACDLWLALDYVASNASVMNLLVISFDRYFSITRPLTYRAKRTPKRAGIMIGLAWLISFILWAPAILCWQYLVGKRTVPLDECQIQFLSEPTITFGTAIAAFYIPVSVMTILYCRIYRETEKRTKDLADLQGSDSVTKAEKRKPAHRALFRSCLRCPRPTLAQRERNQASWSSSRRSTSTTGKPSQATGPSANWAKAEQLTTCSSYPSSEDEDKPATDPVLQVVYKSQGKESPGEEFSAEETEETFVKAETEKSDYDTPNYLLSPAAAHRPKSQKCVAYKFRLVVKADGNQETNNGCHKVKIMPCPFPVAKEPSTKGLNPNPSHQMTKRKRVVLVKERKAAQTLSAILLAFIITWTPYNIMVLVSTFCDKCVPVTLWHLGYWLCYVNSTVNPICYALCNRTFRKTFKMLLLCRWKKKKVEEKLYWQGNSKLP

- EC50: 0.589 µM
SMILES: O=C1C(=O)N(CCOc2ccccc2)c2ccc(OC(F)(F)F)cc21

Reference: PubChem BioAssay AID651927 (Vanderbilt Specialized Chemistry Center, 2012)
